One assay concerns CCRF-CEM. The assay is described as follows: NCI single-dose growth inhibition screen. The format is cell-based. The settings on record: Homo sapiens; Leukemia CCRF-CEM; single dose 10^−5 M.
The test system of a further assay is HL-60(TB). Briefly: NCI single-dose growth inhibition screen. The assay is classed as cell-based. The settings on record: Homo sapiens; Leukemia HL-60(TB); single dose 10^−5 M.
For the next assay, the system named is K-562. The assay is described as follows: NCI single-dose growth inhibition screen. The format is cell-based. The settings on record: Homo sapiens, K562; Leukemia K-562; single dose 10^−5 M.
Another assay relates to A549/ATCC. Briefly: NCI single-dose growth inhibition screen. The assay is classed as cell-based. The settings on record: Homo sapiens; Non-Small Cell Lung Cancer A549/ATCC; single dose 10^−5 M.
In the next assay the test system is EKVX. The assay is described as follows: NCI single-dose growth inhibition screen. The settings on record: Homo sapiens; Non-Small Cell Lung Cancer EKVX; single dose 10^−5 M. The assay is classed as cell-based.
In a further assay the test system is NCI-H23. The assay is described as follows: NCI single-dose growth inhibition screen. The format is cell-based. The note with it: Homo sapiens; Non-Small Cell Lung Cancer NCI-H23; single dose 10^−5 M.
In a further assay the test system is NCI-H322M. Briefly: NCI single-dose growth inhibition screen. The settings on record: Homo sapiens; Non-Small Cell Lung Cancer NCI-H322M; single dose 10^−5 M. The format is cell-based.
The test system of another assay is LOX IMVI. Briefly: NCI single-dose growth inhibition screen. The format is cell-based, human. The note with it: Homo sapiens, LOX IMVI, Melanoma LOX IMVI; single dose 10^−5 M.
The next assay has as its system SK-MEL-5. The assay is described as follows: NCI single-dose growth inhibition screen. The assay is classed as cell-based, human. The note with it: Homo sapiens, SK-MEL-5, Melanoma SK-MEL-5; single dose 10^−5 M.
For another assay, the system named is OVCAR-8. The assay is described as follows: NCI single-dose growth inhibition screen. The assay is classed as cell-based. The settings on record: Homo sapiens; Ovarian Cancer OVCAR-8; single dose 10^−5 M.
The test system of a further assay is 786-0. The assay is described as follows: NCI single-dose growth inhibition screen. The assay is classed as cell-based. The note with it: Homo sapiens; Renal Cancer 786-0; single dose 10^−5 M.
The next assay relates to ACHN. The assay is described as follows: NCI single-dose growth inhibition screen. The settings on record: Homo sapiens; Renal Cancer ACHN; single dose 10^−5 M. The assay is classed as cell-based.
A further assay has as its system RXF 393. The assay is described as follows: NCI single-dose growth inhibition screen. The assay is classed as cell-based. The note with it: Homo sapiens; Renal Cancer RXF 393; single dose 10^−5 M.
Another assay concerns SN12C. Briefly: NCI single-dose growth inhibition screen. The assay is classed as cell-based. The settings on record: Homo sapiens; Renal Cancer SN12C; single dose 10^−5 M.
A further assay deals with MCF7. Briefly: NCI single-dose growth inhibition screen. The note with it: Homo sapiens, MCF7, Breast Cancer MCF7; single dose 10^−5 M. The assay is classed as cell-based, human.
The subject of another assay is MDA-MB231. The assay is described as follows: NCI single-dose growth inhibition screen. The assay is classed as cell-based. The note with it: Homo sapiens, MDA-MB-231; Breast Cancer MDA-MB231; single dose 10^−5 M.
The next assay relates to MDA-MB-468. Briefly: NCI single-dose growth inhibition screen. The assay is classed as cell-based. The settings on record: Homo sapiens; Breast Cancer MDA-MB-468; single dose 10^−5 M.
Assay [1] deals with K. pneumoniae ATCC 10,031. Briefly: Antibacterial screening, agar cup diffusion method. The format is cell-based. The note with it: read-out: Minimum inhibitory concentrations (MIC, µM) K. pneumoniae ATCC 10,031.
Procedure: (§1) Anti-bacterial activity of the recently synthesized compounds 3a-k was evaluated at AUMC (Assiut University Mycological Centre), Assiut, Egypt. Assays were done against Gram-negative strains of K. pneumoniae (ATCC 100310, E. coli (ATCC 25922), Pseudomonas aeruginosa (ATCC 27853) and the Gram-positive S. aureus (ATCC 6538) strain utilizing standard agar cup diffusion method. The isolates from the four bacterial species examined were kept in TSB (Trypticase Soya Broth, Becton and Dickinson) with 10% glycerol at -70 °C and then subcultured on TSA (Trypticase Soya Agar, Becton and Dickinson) and TSB for 24 h at 37 °C former to inoculation. Bacterial isolates were then plated on sterile petri plates with 1 × 10^8 CFU/mL (0.5 McFarland turbidity) and 20 mL of Mueller Hinton Agar media (Oxoid) was then loaded. To ensure that the microorganisms were evenly dispersed, the plates were gently rotated before being left to harden on a level surface. Four equally spaced spherical-shaped wells (10 mm diameter) were painstakingly drilled using a sterilized cork bore after media solidification. All tested compounds under test underwent two-fold serial dilutions in a sequential manner. Three replications of 100 µL of each concentration were added to a well using a micropipette. Plates were then incubated for 24-hour at 37 °C. The average of the inhibition zones was then calculated. To determine the MICs, the natural logarithm of each diluted test substance’s concentration was plotted against the average area of the related inhibition zone. Following that, a regression line was created and the intercept on the ‘ln concentration” axis was determined, and the antilogarithm was calculated to indicate the MIC value[34],[63].
The subject of assay [2] is P. aeruginosa ATCC 27,853. Briefly: Antibacterial screening, agar cup diffusion method. The format is cell-based. The settings on record: Pseudomonas aeruginosa, ATCC27; Gram –ve strain; read-out: Minimum inhibitory concentrations (MIC, µM) P. aeruginosa ATCC 27,853.
Procedure: as §1
Another assay deals with human melanoma LOX IMVI. Briefly: cells.
Setting [3] is: Klebsiella pneumoniae, ATCC10, Gram –ve strain.

What is called inhibition is how much of the control response was suppressed. High values mean strong suppression, low ones little suppression. Usually viability stands for a per cent measure of how many cells are alive, often set against a control.

Molecules are shown by their SMILES. In brackets after ≈: the same amount, converted by molar mass. Where two headings read alike, the source gives them in different places. Where only a bound is given, the exact number is not on record here.

As for `COc1cc(/C=C2\SC(=O)N(CCCC(=O)N3CCN(c4cc5c(cc4F)c(=O)c(C(=O)O)cn5C4CC4)CC3)C2=O)cc(OC)c1OC` [3 g], the inhibition at 10 µM in the assay on CCRF-CEM is < 0%; with HL-60(TB) it was < 0%; with K-562, < 0%; in the assay on A549/ATCC, 3.5%; in the assay with EKVX, < 0%; in the assay with NCI-H23, 2.6%. The inhibition at 10 µM in the assay on NCI-H322M was 5.1%; with LOX IMVI, 1.8%; in the assay on SK-MEL-5, < 0%; in the assay on OVCAR-8, 1.9%; in the assay on 786-0 it was < 0%; in the assay on ACHN, < 0%. Further, the inhibition at 10 µM in the assay on RXF 393 was < 0%; in the assay on SN12C, 0.6%; in the assay on MCF7, 3.6%; with MDA-MB231, < 0%; in the assay on MDA-MB-468, < 0%. Moreover, the MIC in assay [1] (Gram –ve strain) is 0.25 µM (≈ 0.174 µg/mL); in [1] (setting [3]) it was 0.13 to 0.8 µM (≈ 0.0903 to 0.556 µg/mL); in assay [2] it was > 20 µM.
With `O=C(O)c1cn(C2CC2)c2cc(N3CCN(C(=O)CCCN4C(=O)S/C(=C\c5ccc(Cl)cc5)C4=O)CC3)c(F)cc2c1=O` [3 h], the inhibition at 10 µM in the assay with CCRF-CEM was < 0%; with HL-60(TB) it was < 0%; in the assay on K-562 it was 0.7%; in the assay with A549/ATCC, 3.4%; in the assay with EKVX, 2.1%; with NCI-H23, 5.3%. Also, the inhibition at 10 µM in the assay with NCI-H322M is 11.8%; with LOX IMVI it was 38.2%; in the assay on SK-MEL-5 it was 1.1%; in the assay on OVCAR-8 it was 5.3%; in the assay with 786-0, 11.3%; in the assay on ACHN, 0.7%. In addition, the inhibition at 10 µM in the assay with RXF 393 is < 0%; in the assay with SN12C it was 0.4%; in the assay on MCF7, < 0%; with MDA-MB231, 13.7%; with MDA-MB-468, < 0%. Moreover, the MIC in assay [2] was > 20 µM.
For the compound `Cc1ccc(/C=C2\SC(=O)N(CCCC(=O)N3CCN(c4cc5c(cc4F)c(=O)c(C(=O)O)cn5C4CC4)CC3)C2=O)cc1` [3c], the inhibition at 10 µM in the assay with CCRF-CEM was 2.9%; in the assay with HL-60(TB), 6.2%; in the assay on K-562, < 0%; with A549/ATCC, < 0%; with EKVX, 2.4%; in the assay with NCI-H23, 1.8%. In addition, the inhibition at 10 µM is < 0% in the assay with NCI-H322M; 3.5% with LOX IMVI; 3.8% in the assay with SK-MEL-5; < 0% in the assay with OVCAR-8; 0.9% in the assay with 786-0; 2.3% in the assay on ACHN. The inhibition at 10 µM in the assay with RXF 393 was 7.2%; in the assay with SN12C, < 0%; in the assay with MCF7, < 0%; with MDA-MB231 it was < 0%; in the assay on MDA-MB-468, < 0%. In addition, the MIC in assay [2] is > 20 µM.
With `O=C(O)c1cn(C2CC2)c2cc(N3CCN(C(=O)CCCN4C(=O)SC(=Cc5cccc([N+](=O)[O-])c5)C4=O)CC3)c(F)cc2c1=O` [3d, 1-cyclopropyl-6-fluoro-7-[4-[4-[5-[(3-nitrophenyl)methylene]-2,4-dioxo-thiazolidin-3-yl]butanoyl]piperazin-1-yl]-4-oxoquinoline-3-carboxylic acid], the inhibition at 10 µM in the assay with CCRF-CEM is < 0%; in the assay with HL-60(TB) it was < 0%; with K-562 it was < 0%; in the assay on A549/ATCC, 7.8%; in the assay with EKVX, 2.3%; in the assay with NCI-H23, 7.9%. The inhibition at 10 µM was found to be 6.8% in the assay with NCI-H322M; 26.5% in the assay on LOX IMVI; 2.3% in the assay with SK-MEL-5; 3.1% with OVCAR-8; 8.5% in the assay on 786-0; 4.2% in the assay with ACHN. The inhibition at 10 µM with RXF 393 is < 0%; in the assay with SN12C, 3.7%; in the assay with MCF7, 1.9%; in the assay on MDA-MB231, 8%; with MDA-MB-468 it was 0.5%. Further, the MIC was 0.13 µM (≈ 0.0845 µg/mL) in assay [1] (Gram –ve strain), 0.13 to 0.8 µM (≈ 0.0845 to 0.52 µg/mL) in assay [1] (setting [3]) and 0.87 µM (≈ 0.565 µg/mL) in assay [2].
For `COc1ccc(C=C2SC(=O)N(CCCC(=O)N3CCN(c4cc5c(cc4F)c(=O)c(C(=O)O)cn5C4CC4)CC3)C2=O)cc1` [3e, 1-cyclopropyl-6-fluoro-7-[4-[4-[5-[(4-methoxyphenyl)methylene]-2,4-dioxo-thiazolidin-3-yl]butanoyl]piperazin-1-yl]-4-oxoquinoline-3-carboxylic acid], the inhibition at 10 µM was < 0% in the assay on CCRF-CEM; < 0% in the assay on HL-60(TB); < 0% with K-562; 7.9% in the assay on A549/ATCC; 0.4% in the assay on EKVX; 2.6% in the assay on NCI-H23. Also, the inhibition at 10 µM with NCI-H322M came to 6%; in the assay with LOX IMVI, 42.5%; in the assay with SK-MEL-5 it was 3.9%; in the assay on OVCAR-8 it was 5.3%; in the assay on 786-0, 18.7%; in the assay on ACHN it was 1.2%. In addition, the inhibition at 10 µM is < 0% in the assay on RXF 393; < 0% in the assay with SN12C; < 0% in the assay with MCF7; 12.4% in the assay with MDA-MB231; < 0% with MDA-MB-468. For the same compound, the MIC is 0.19 µM (≈ 0.121 µg/mL) in assay [1] (Gram –ve strain), 0.13 to 0.8 µM (≈ 0.0825 to 0.508 µg/mL) in assay [1] (setting [3]) and > 20 µM in [2]. The viability at 0.4 µM with human melanoma LOX IMVI stood at 76.7%. The same compound came in with a viability at 1.6 µM with human melanoma LOX IMVI of 67.7%. For the same compound, the viability at 25 µM in the assay on human melanoma LOX IMVI stood at 52%. For the same compound, the viability at 100 µM with human melanoma LOX IMVI was 47.4%.
`COc1ccc(/C=C2\SC(=O)N(CCCC(=O)N3CCN(c4cc5c(cc4F)c(=O)c(C(=O)O)cn5C4CC4)CC3)C2=O)cc1OC` [3f]: the inhibition at 10 µM is < 0% in the assay with CCRF-CEM; 1.9% in the assay with HL-60(TB); 1.1% with K-562; 1.3% with A549/ATCC; 10.6% with EKVX; < 0% in the assay with NCI-H23. Further, the inhibition at 10 µM was 4.2% in the assay on NCI-H322M; 2.4% with LOX IMVI; 1.9% in the assay on SK-MEL-5; 2.9% with OVCAR-8; 2.4% with 786-0; < 0% with ACHN. Besides, the inhibition at 10 µM was < 0% in the assay with RXF 393; 0.8% with SN12C; 3.9% with MCF7; 0.1% in the assay with MDA-MB231; < 0% in the assay with MDA-MB-468. Also, the MIC in assay [1] (setting [3]) and in [2] was > 20 µM each time.

For the origin of these results see PMC11480511 (Scientific Reports, 2024).
